Laboratory results as given in BigSolDB 2.1.

CC(CO)(CO)CO
solubility (mole fraction)
Conditions	283.15 K	288.15 K	293.15 K	298.15 K	303.15 K	311.05 K	313.15 K	318.15 K
in ethyl acetate	0.00205	0.00263	0.00335	0.00433	0.00528	0.00673	0.00841	0.0105
in methyl acetate	0.0026	0.00317	0.00398	0.00512	0.00638	0.00801	0.00997	0.013
in n-butanol	0.0386	0.0449	0.0535	0.0634	0.0769	0.0914	0.11	0.131
